Data reported in patent US20210308084A1, “AGENT FOR IMPROVING MUSCLE QUALITY” (AJINOMOTO CO., INC., priority 2018, published 2021).

Test system: mouse-derived muscle cell line C2C12 (myotube cells)
Test: Evaluation of muscle insulin signal (pAkt Ser473/total Akt, Western blotting) in myotubes exposed to palmitic acid (FFA)
Format: cell-based
Conditions: FIG. 2; for muscle insulin signal lowered by FFA (phosphorylation index, [(pAkt/Total Akt) Insulin+]/[(pAkt/Total Akt) Insulin-]): amino acid 1 mM added simultaneously with 0.5 mM palmitic acid (FFA), 100 nM insulin stimulation; for action on muscle insulin signal compared with positive control NAC: amino acid 1 mM versus N-acetylcysteine (NAC) 5 mM, 0.5 mM FFA
Protocol: Using mouse C3H skeletal muscle myoblast (C2C12 cell) (DS Pharma Biomedical Co., Ltd.), the evaluation was performed. Induction of differentiation into myotube cells (Myotubes) was performed using cells with myoblast passage number of 12 to 18. Myoblasts were seeded in a 12-well (diameter=3 cm) plate at 0.3×10^5 to 0.5×10^5/well. After confirmation that the cell proliferation state reached 90% confluent, the medium was replaced with DMEM culture medium supplemented with 2(w/v) % horse serum (HS) and 1(w/v) % penicillin-streptomycin-[…](w/v) % HS, 1(w/v) % […](w/v) % Gln/DMEM), and differentiation into myotube cells (Myotubes) was induced. After confirmation of differentiation into myotube cells (Myotubes), a muscle insulin signal evaluation system was constructed, and the action of each of isoleucine, glycine, and cystine was evaluated using the constructed evaluation system. […] After culturing overnight, the cells were preincubated for about 2 hr in DMEM (BSA/FFA free) with an amino acid concentration of 1/5, stimulated by incubation (15 min-20 min) with 100 nM insulin, and the myotube cells were collected (each n=3). From the collected cells, proteins were extracted with RIPA (Radio-Immunoprecipitation Assay) buffer (Cell Signaling Technologies Inc.), adjusted to a final protein concentration of 0.5 mg/mL, and used as samples. The expression levels of phosphorylated Akt (pAkt) (Ser473) and [NT] in the above-mentioned sample were quantified by the Western blotting (WB) method using anti-phosphorylated Akt (pAkt) (Ser473) antibody (#92715; Cell Signaling Technologies Inc.) and anti-[NT] antibody (#9272S; Cell Signaling Technologies Inc.). The expression level of each protein was quantified using Western blot-chemiluminescent imaging system (Fusion FX) (Vilber-Lourmat Inc.). Each amino acid was added simultaneously with FFA, and the muscle quality-improving effect was examined with the recovery of the muscle insulin signal as an index. The final concentration of each amino acid was adjusted to 1 mM. As a positive control, an antioxidative active substance N-acetylcysteine (NAC) 5 mM was used. From the measurement results of the expression levels of phosphorylated Akt (Ser473) and total Akt, the ratio of phosphorylated Akt and total Akt with insulin stimulation to the ratio of phosphorylated Akt and total Akt without insulin stimulation [(pAkt/Total Akt) Insulin+]/[(pAkt/Total Akt) Insulin-] was determined and shown in FIG. 2 as the phosphorylation index (stimulation index). In FIG. 2, the phosphorylation index is shown as mean±standard error for each sample.

SMILES | muscle insulin signal lowered by FFA (phosphorylation index, [(pAkt/Total Akt) Insulin+]/[(pAkt/Total Akt) Insulin-]) | action on muscle insulin signal compared with positive control NAC
N[C@@H](CSSC[C@H](N)C(=O)O)C(=O)O [cystine, L-cystine] | restore the muscle insulin signal lowered by FFA | equal to or higher than that of NAC
NCC(=O)O [glycine] | restore the muscle insulin signal lowered by FFA | equal to or higher than that of NAC
CC[C@H](C)[C@H](N)C(=O)O [isoleucine, L-isoleucine] | restore the muscle insulin signal lowered by FFA | equal to or higher than that of NAC
